# Laboratory results reported in patent publication US20180036234A1, “TREATMENT OF BONE FRACTURES AND DEFECTS” (Entera Bio Ltd., priority 2015, published 2018).
# Values joined by “and” are separate entries in the source; they are usually repeats but may differ in a detail not shown here. Equal values may be shown once.
# Key:
# [1] = Dissolution test of tablets in simulated gastric buffer, released SNAC by HPLC; type: physicochemical; conditions: tablet with 100 mg sodium bicarbonate vs tablet without; simulated gastric buffer pH 2.0, 37° C.; FIG. 15
# Experimental: The tablets were in a form of a homogeneous mixture.
# Each tablet formulation was subjected to a dissolution test in 100 ml of simulated gastric buffer (without pepsin), pH 2.0, at 37° C., according to USP 23 Apparatus 2 (paddle) with 50 rotations per minute. The amount of released SNAC in each sample was determined chromatographically, using an HPLC apparatus with Cosmosil™ 5 C18-MS-II (4.6 ID×250 mm) column. Mobile phase consisted of 50% acetonitrile and 50% phosphoric acid solution (0.1%). Flow rate was 1 ml/minute and injection volume was 25 μl. Amount of released SNAC was calculated as a percentage of the amount of SNAC in the formulation.
# [2] = Pharmacokinetic study of oral teriparatide tablet (0.75 mg) in healthy volunteers; type: in vivo, human
# Experimental: An open label comparative pharmacokinetic study was performed in healthy volunteers over the course of 3 months. Each volunteer received—in each of two visits—the same oral tablet containing 0.75 mg of teriparatide, a recombinant form of parathyroid hormone (1-34).
# (§1) The formulation was composed of teriparatide (0.75 mg), SNAC (sodium 8-N-(2-hydroxybenzoyl) aminocaprylate), soybean trypsin inhibitor (SBTI) and a small amount of magnesium stearate.
# Tablets were administered in the morning after an 8-hour overnight fast and immediately followed by 150 ml of water. At each visit a standard meal was provided 3 hours after drug administration. […] There was a two weeks period between the visits.
# (§2) To determine parathyroid hormone(1-34) (PTH(1-34)) concentrations, blood samples (4 ml each) were drawn via an indwelling catheter from the forearm vein at predetermined time points during each visit. The cannula was flushed with 1.5 ml normal saline after each sampling. In addition, to avoid sample dilution, 1 ml of blood was drawn and discarded before the next sample. The blood samples were taken at following times: baseline (predose), 10 minutes, 15 minutes, 20 minutes, 30 minutes, 45 minutes, 60 minutes, 75 minutes, 90 minutes, 105 minutes, 2 hours, 3 hours, 4 hours and 5 hours post-administration. Each blood sample was collected into a single tube containing EDTA (ethylenediaminetetraacetic acid) and placed on ice. Within 15 minutes of blood collection, samples were centrifuged for 10 minutes at 4° C. (2500 rotations per minute) and the plasma was separated and divided into two or three aliquots. Each aliquot was transferred into appropriately labeled polypropylene tubes and stored at approximately −20° C. pending analysis. PTH(1-34) levels were measured using an IDS-iSYS automated assay for the measurement of intact PTH(1-34) in human plasma or serum.
# cAMP = test: Plasma cAMP levels after oral or subcutaneous teriparatide; type: in vivo, human; conditions: FIG. 4
# Experimental: In addition, plasma levels of cAMP, a known marker of PTH activity, were determined in order to confirm biological activity of administered PTH. cAMP plasma levels were measured following oral administration of 680 μg teriparatide or subcutaneous injection of 20 μg teriparatide, as described hereinabove.
# [3] = Pharmacokinetic study of oral teriparatide tablet co-administered with water or sodium bicarbonate solution; type: in vivo, human; conditions: oral tablet 0.75 mg teriparatide with 150 ml of 3 mg/ml sodium bicarbonate solution, in comparison with 150 ml water; FIG. 16
# Experimental: An open label comparative pharmacokinetic study was performed on ten healthy volunteers. On different visits, each volunteer received the same oral tablet containing 0.75 mg of teriparatide, a recombinant form of parathyroid hormone (1-34) (PTH(1-34)). In the first visit, the tablet was administered with 150 ml water, whereas in the second visit the tablet was administered with 150 ml of 3 mg/ml sodium bicarbonate aqueous solution.
# as §1
# Tablets were administered in the morning after an 8-hour overnight fast. At each visit a standard meal was provided 3 hours after drug administration. […] There was a two week period between the two visits.
# To determine PTH(1-34) concentrations, blood samples were drawn and PTH(1-34) levels were measured using an IDS-iSYS automated assay, using procedures described in Example 1 hereinabove. Relative absorption was determined based on the AUC (area under curve) parameter.
# [4] = Phase I clinical study of oral teriparatide formulations, plasma PTH(1-34) versus subcutaneous injection; type: in vivo, human
# Experimental: A Phase I clinical study of exemplary oral formulations comprising teriparatide (parathyroid hormone (1-34)) was conducted at the Hadassah Clinical Research Center. 42 healthy volunteers were included throughout the study.
# The formulation was composed of teriparatide (200, 400, 680, 1400 or 1800 μg), SNAC (sodium 8-N-(2-hydroxybenzoyl) aminocaprylate), soybean trypsin inhibitor and magnesium stearate.
# Tablets were administered in the morning after an 8-hour overnight fast and immediately followed by 150 ml of water. At each visit a standard meal was provided 3 hours after drug administration.
# as §2, with “hormone” for “hormone(1-34) (PTH(1-34))”, “points.” for “points during each visit.”, “(predose),” for “(predose), 10 minutes,”, “15” for “15 minutes, 20”
# Oral administration of teriparatide was performed as described hereinabove at doses of 200, 400, 680, 1400 or 1800 μg. The Cmax of PTH(1-34) for each orally administered dose was compared with the Cmax of PTH(1-34) for subcutaneous injection of 20 μg teriparatide.
# [5] = oral tablet 0.75 mg teriparatide with SNAC, SBTI, magnesium stearate, fasted healthy volunteers, plasma PTH(1-34), per subject (A, B, C)
# [6] = oral tablet 0.75 mg teriparatide with SNAC, SBTI, magnesium stearate, second visit two weeks later, per subject (A, B, C)
dissolution of SNAC in tablets [1],soluble fraction of SNAC [1],"time for plasma levels to return to baseline levels after tablet administration ([2]; oral tablet 0.75 mg teriparatide with SNAC and SBTI, plasma) [min]","Cmax after 1st administration [2, 5] [picogram/ml]","Tmax after 1st administration [2, 5]","Cmax after 2nd administration [2, 6] [picogram/ml]","Tmax after 2nd administration [2, 6] [min]",increase in absorption of PTH(1-34) (based on AUC) [3],"decline of PTH levels following oral administration compared with subcutaneous administration ([4]; oral 1800 μg vs subcutaneous 20 μg teriparatide, FIG. 3)","Cmax of PTH(1-34) following oral administration, relation to dose ([4]; oral tablets 200, 400, 680, 1400 or 1800 μg teriparatide with SNAC and SBTI, FIG. 2)","oral dose providing a Cmax equivalent to that of subcutaneous administration of 20 μg teriparatide ([4]; oral tablets with SNAC and SBTI, FIG. 2)",Structure (SMILES),plasma cAMP levels (cAMP; oral administration of 680 μg teriparatide (compared with subcutaneous 20 μg)),plasma cAMP levels (cAMP; subcutaneous administration of 20 μg teriparatide (compared with oral 680 μg))
considerably enhanced,preserved,,,,,,,,,,"O=C(O)CCCCCCCNC(=O)c1ccccc1O [SNAC, sodium 8-N-(2-hydroxybenzoyl)aminocaprylate]",,
,,≤ 60,35,10 min and 15 min,36,20,about 35%,declined considerably more rapidly,proportional to the dose,roughly 750 μg,CC[C@H](C)[C@H](NC(=O)[C@H](CCC(=O)O)NC(=O)[C@H](CO)NC(=O)[C@@H](NC(=O)[C@@H](N)CO)C(C)C)C(=O)N[C@@H](CCC(N)=O)C(=O)N[C@@H](CC(C)C)C(=O)N[C@@H](CCSC)C(=O)N[C@@H](Cc1cnc[nH]1)C(=O)N[C@@H](CC(N)=O)C(=O)N[C@@H](CC(C)C)C(=O)NCC(=O)N[C@@H](CCCCN)C(=O)N[C@@H](Cc1cnc[nH]1)C(=O)N[C@@H](CC(C)C)C(=O)N[C@@H](CC(N)=O)C(=O)N[C@@H](CO)C(=O)N[C@@H](CCSC)C(=O)N[C@@H](CCC(=O)O)C(=O)N[C@@H](CCCN=C(N)N)C(=O)N[C@H](C(=O)N[C@@H](CCC(=O)O)C(=O)N[C@@H](Cc1c[nH]c2ccccc12)C(=O)N[C@@H](CC(C)C)C(=O)N[C@@H](CCCN=C(N)N)C(=O)N[C@@H](CCCCN)C(=O)N[C@@H](CCCCN)C(=O)N[C@@H](CC(C)C)C(=O)N[C@@H](CCC(N)=O)C(=O)N[C@@H](CC(=O)O)C(=O)N[C@H](C(=O)N[C@@H](Cc1cnc[nH]1)C(=O)N[C@@H](CC(N)=O)C(=O)N[C@@H](Cc1ccccc1)C(=O)O)C(C)C)C(C)C [teriparatide],increased plasma cAMP levels to a similar degree,increased plasma cAMP levels to a similar degree
